Assay results published in patent US20200131473A1, “METHOD OF GENERATING 2 CELL-LIKE STEM CELLS” (IFOM FONDAZIONE ISTITUTO FIRC DI ONCOLOGIA MOLECOLARE, priority 2017, published 2020).

Legend:
[1] = system: morula stage mouse embryos; experiment: qPCR for 2C-embryo specific genes in APH-treated morula-stage mouse embryos; type: cell-based
Method: (§1) RNA was extracted using RNeasy mini kit (QIAGEN), quantified by NanoDrop spectrophotometer and cDNA was prepared from 2 μg total DNA-depleted RNA using SuperScript™ III reverse transcriptase kit (Invitrogen cat #18080-093) following manufacturer's instructions. qPCR assay performed based on standard protocol using 10× SsoFast™ EvaGreen® Supermix or later 1× LightCycler 480 SYBR Green I Master (Roche, 04707516001), 0.5 μM primer mix and 5 ng of cDNA. GAPDH was used as internal control to normalise the qPCR data following ΔΔCt method, 10 μM primer mix and a total amount of cDNA corresponding to 5 ng of starting RNA for each reaction.
Cryopreserved C57BL/6N morulae purchased from Janvier Labs (QUICKBLASTO®), were thawed according to the manufacturer's protocol. After recovery, a group of healthy morulae were treated with APH at final concentration of 1.5 μM in KSOM culture medium for 4 hrs while the rest were kept as control. The day after, the same number of morphologically healthy and synchronized blastocysts (22 and 7 blastocysts in the 1st and 2nd round, respectively) were selected from both groups. […] As the quantity of isolated RNA is not detectable by NanoDrop spectrophotometer, the supernatant was directly used for cDNA preparation following centrifugation at 10621 g for 2 minutes. cDNA preparation and qPCR were performed following the aforementioned protocols. […]

[2] = system: C57BL/6N morulae; experiment: Viability of APH-treated embryos; type: cell-based, mouse; details: APH 1.5 μM in KSOM for 4 hrs
[3] = system: Nanog, Pou5f1 (Oct4), Sox2; experiment: Immunostaining and qPCR for canonical pluripotency markers in ESCs; type: cell-based, mouse; details: upon APH treatment
Method: RNA was extracted using RNeasy mini kit (QIAGEN), quantified by NanoDrop spectrophotometer and cDNA was prepared from 2 μg total DNA-depleted RNA using SuperScript™ III reverse transcriptase kit (Invitrogen cat #18080-093) following manufacturer's instructions. qPCR assay performed based on standard protocol using […] SsoFast™ EvaGreen® Supermix or later 1× LightCycler 480 SYBR Green I Master (Roche, 04707516001), 0.5 μM primer mix and 5 ng of cDNA. GAPDH was used as internal control to normalise the qPCR data following ΔΔCt method, 10 μM primer mix and a total amount of cDNA corresponding to 5 ng of starting RNA for each reaction. […] Then, cells were incubated with primary antibody at 4° C. overnight, followed by washes and incubation with secondary antibody for an hour at room temperature. Next samples were mounted and images were acquired with wide field florescent microscope. Antibodies used in this study were Anti Oct-3/4 (Santa Cruz sc-5279), Anti Nanog (Abcam ab80892) and Plet-1 antibody (Nordic MUbio MUB1512P) and), Anti-GFP (Abcam, ab5450). Acquired figures were analyzed with ImageJ software.

[4] = system: mouse embryonic fibroblast (MEF) lines; experiment: qPCR for 2C-specific markers in MEF lines; type: cell-based; details: two MEF lines with distinct genetic backgrounds
Method: ESCs were grown in feeder free culture condition either with or without 0.1% gelatin coat and incubated in 37° C. and 3% 02 tension. ESC medium (high glucose DMEM (DMEM Media—GlutaMAX™-I, Gibco)), 15% ESC qualified FBS (HyClone™ Fetal Bovine Serum), 2 mM L-glutamine, 1/500 home-made leukemia inhibitory factor, 0.1 mM non-essential amino acids, 0.1 mM 2-bmercaptoethanol, 50 units/ml penicillin, […] streptomycin, 1 mM Sodium Pyruvate) supplemented with two inhibitors (2i from Axon medchem) that are PD 0325901; highly specific non-ATP-competitive inhibitor of MEK (aka MKK) 1/2 at final concentration of 1 uM and CHIR 99021; specific glycogen synthase kinase GSK-3 inhibitor at final concentration of 3 uM. MEF cells were cultured in MEF medium (high glucose DMEM (Lonza), 10% north America FBS, 2 mM L-glutamine, 0.1 mM non-essential amino acids, 50 units/ml penicillin, 1 mM Sodium Pyruvate and […] streptomycin).
as §1, with “GAPDH was used as internal control to normalise the qPCR data following ΔΔCt method, 10 μM primer mix and a total amount of cDNA corresponding to 5 ng of starting RNA for each reaction.” left out

[5] = system: morula-stage embryos; experiment: Mouse chimaera assay; type: in vivo; details: APH-treated mCherry ESCs injected into morula, 24 hrs post injection; 7 out of 35
Method: Briefly, morula stage embryos were bought from Charles River laboratories. They were thawed few hours prior to injection and about five to eight ESC were injected into the perivitelline space of high quality morula-stage embryos using laser-assisted technique and glass micro-capillary tubes. Finally, embryos were cultured for 24 hours at 37 C, 5% CO2 to allow the blastocysts development prior to the microscopic analysis.
For ETAA-1 inducible cells, 8-cell morulae were obtained from superovulated C57BL/6 prepubescent females from Janvier Labs. Ten ESCs were injected into each morula after piercing their zona pellucida with beveled microinjection needle. Embryos were kept in M2 medium during the injection and afterwards in KSOM medium at 37° C. under 5% CO2. Morulae were either cultured for 48 hrs to study ESC contribution at late blastocyst stage (E4.5), or transferred to pseudopregnant females and later dissected at E7.5. Chimerism and ESC contribution to the various embryonic layers were assessed by emission of mCherry fluorescence signal.
For the APH-treated ESCs, frozen morula-stage embryos were purchased from Charles River and Janvier laboratories. Embryos were thawed 2 hrs prior to injection and 4 to 8 ESCs were transferred into the perivitelline space by laser-assisted microinjection method. […]

In the case of `C[C@@]1(CO)[C@H](O)CC[C@@]2(C)[C@H]1CC[C@H]1C[C@@H]3C[C@@]12CC[C@]3(O)CO` [APH, aphidicolin], the “expression of 2C embryo specific markers Dux, MERVL and Gm4981 (qPCR)” value ([1]; morula-stage embryos treated with APH, blastocyst stage) is reported as “activated the expression of several key 2C embryo specific markers”, the “expression of 2C-embryo-specific genes Zscan4, Tcstv3, GM12794 and Eif1a (qPCR)” value ([1]; morula-stage embryos, APH 1.5 μM for 4 hrs, blastocysts analysed the day after) is reported as “activate several key 2C-embryo-specific genes” and the “viability of the embryos” value [2] is reported as “no effect on the viability of the embryos”. For the same molecule, the “Nanog, Pou5f1 (Oct4) protein in Zscan4 positive cells (immunostaining)” value [3] was “mild downregulation”, the “expression of pluripotency related genes at the transcriptional level” value ([3]; Sox2, Nanog, Pou5f1, Rex1) was “no significant alterations” and the “expression of main 2C-specific markers such as MuERV-L in MEF lines” value [4] was “do not alter”. For the same molecule, the “chimeric embryos with contribution to the trophectoderm layer of the blastocysts” value [5] was 20%.
